Source: patent publication US20240024488A1, “COMPOUNDS AND USES THEREOF” (Foghorn Therapeutics Inc., priority 2020, published 2024)

Experiments:
HiBit-BRM fusion protein = biological target: T1, HiBit-BRM fusion protein (Homo sapiens, UniProt P51531); assay: HiBiT-BRM cell-based degradation assay (Nano-Glo HiBiT Lytic Detection, 24 h); details: HeLa cell line expressing HiBiT-BRM; for DC50: read-out: BRM HiBit Degradation IC50
T1 construct: expressed in transfected cells
Procedure, shortened: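 Stable HiBiT-BRM HeLa line; 24 h compound exposure, top final 30 μM, 3-fold, 10 pts in duplicate. Lytic HiBiT/LgBiT luminescence readout. % degradation vs DMSO (0%) and 2 μM known BRM/BRG1 degrader (100%).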

[1] = biological target: T2, HiBit-BRG1 fusion protein (Homo sapiens, UniProt P51532); assay: HiBiT-BRG1 cell-based degradation assay (Nano-Glo HiBiT Lytic Detection, 24 h); details: HeLa cell line expressing HiBit-BRG1 and LgBit; for Dmax: read-out: BRG1 HiBit Degradation Maximum (%); for DC50: read-out: BRMG1 HiBit Degradation IC50
T2 construct: expressed in transfected cells
Procedure, shortened: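 Seed 5000 HeLa HiBit-BRG1/LgBit cells per well; treat 24 h; equilibrate 15 min at room temperature; add Nano-Glo HiBiT lytic reagent, shake 10 min, read luminescence. Percent degradation is scaled between DMSO and 2 μM reference degrader wells.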

T2 sequence (P51532 whole entry, the tested form may be a part): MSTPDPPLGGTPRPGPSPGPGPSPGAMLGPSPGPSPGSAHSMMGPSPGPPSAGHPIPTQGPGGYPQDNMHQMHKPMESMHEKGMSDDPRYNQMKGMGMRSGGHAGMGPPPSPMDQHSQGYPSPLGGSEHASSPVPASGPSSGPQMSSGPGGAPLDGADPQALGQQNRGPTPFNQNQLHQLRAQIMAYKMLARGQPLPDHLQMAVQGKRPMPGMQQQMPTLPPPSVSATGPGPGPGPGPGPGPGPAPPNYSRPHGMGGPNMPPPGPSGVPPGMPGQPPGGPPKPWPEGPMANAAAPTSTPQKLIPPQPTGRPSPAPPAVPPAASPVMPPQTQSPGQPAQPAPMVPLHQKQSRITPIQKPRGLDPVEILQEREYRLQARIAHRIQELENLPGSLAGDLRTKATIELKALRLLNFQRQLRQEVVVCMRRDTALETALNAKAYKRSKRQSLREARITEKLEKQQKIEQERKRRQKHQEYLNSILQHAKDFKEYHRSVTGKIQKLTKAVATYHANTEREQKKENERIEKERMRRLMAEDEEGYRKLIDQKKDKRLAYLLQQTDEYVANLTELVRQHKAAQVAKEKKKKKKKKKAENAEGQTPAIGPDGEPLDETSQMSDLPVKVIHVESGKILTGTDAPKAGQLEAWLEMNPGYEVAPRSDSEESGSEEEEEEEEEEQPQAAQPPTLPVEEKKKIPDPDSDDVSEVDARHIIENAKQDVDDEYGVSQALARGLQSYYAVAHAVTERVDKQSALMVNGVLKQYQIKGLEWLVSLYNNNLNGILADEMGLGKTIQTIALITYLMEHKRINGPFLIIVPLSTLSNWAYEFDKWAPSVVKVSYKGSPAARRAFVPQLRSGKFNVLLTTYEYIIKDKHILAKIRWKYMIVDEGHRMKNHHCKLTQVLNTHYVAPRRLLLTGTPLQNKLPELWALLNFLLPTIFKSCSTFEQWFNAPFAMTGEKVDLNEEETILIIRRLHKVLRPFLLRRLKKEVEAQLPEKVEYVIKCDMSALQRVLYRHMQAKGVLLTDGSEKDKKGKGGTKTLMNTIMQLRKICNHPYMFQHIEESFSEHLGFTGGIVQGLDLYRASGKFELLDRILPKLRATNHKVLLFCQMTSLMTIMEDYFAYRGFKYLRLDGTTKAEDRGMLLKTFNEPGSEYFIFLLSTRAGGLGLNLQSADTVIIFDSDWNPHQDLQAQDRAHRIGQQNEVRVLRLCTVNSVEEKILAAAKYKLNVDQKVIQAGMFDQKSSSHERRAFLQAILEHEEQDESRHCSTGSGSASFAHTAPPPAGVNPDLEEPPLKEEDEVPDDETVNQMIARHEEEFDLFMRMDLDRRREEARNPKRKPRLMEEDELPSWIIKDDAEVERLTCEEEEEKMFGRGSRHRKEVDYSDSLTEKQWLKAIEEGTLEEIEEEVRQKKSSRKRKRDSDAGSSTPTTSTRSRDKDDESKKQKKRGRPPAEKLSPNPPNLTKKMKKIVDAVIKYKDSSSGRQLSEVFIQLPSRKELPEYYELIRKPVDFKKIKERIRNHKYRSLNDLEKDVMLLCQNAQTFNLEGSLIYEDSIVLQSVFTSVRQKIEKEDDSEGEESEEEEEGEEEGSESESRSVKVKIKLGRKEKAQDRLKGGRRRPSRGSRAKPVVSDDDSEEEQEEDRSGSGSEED
T1 sequence (P51531 whole entry, the tested form may be a part): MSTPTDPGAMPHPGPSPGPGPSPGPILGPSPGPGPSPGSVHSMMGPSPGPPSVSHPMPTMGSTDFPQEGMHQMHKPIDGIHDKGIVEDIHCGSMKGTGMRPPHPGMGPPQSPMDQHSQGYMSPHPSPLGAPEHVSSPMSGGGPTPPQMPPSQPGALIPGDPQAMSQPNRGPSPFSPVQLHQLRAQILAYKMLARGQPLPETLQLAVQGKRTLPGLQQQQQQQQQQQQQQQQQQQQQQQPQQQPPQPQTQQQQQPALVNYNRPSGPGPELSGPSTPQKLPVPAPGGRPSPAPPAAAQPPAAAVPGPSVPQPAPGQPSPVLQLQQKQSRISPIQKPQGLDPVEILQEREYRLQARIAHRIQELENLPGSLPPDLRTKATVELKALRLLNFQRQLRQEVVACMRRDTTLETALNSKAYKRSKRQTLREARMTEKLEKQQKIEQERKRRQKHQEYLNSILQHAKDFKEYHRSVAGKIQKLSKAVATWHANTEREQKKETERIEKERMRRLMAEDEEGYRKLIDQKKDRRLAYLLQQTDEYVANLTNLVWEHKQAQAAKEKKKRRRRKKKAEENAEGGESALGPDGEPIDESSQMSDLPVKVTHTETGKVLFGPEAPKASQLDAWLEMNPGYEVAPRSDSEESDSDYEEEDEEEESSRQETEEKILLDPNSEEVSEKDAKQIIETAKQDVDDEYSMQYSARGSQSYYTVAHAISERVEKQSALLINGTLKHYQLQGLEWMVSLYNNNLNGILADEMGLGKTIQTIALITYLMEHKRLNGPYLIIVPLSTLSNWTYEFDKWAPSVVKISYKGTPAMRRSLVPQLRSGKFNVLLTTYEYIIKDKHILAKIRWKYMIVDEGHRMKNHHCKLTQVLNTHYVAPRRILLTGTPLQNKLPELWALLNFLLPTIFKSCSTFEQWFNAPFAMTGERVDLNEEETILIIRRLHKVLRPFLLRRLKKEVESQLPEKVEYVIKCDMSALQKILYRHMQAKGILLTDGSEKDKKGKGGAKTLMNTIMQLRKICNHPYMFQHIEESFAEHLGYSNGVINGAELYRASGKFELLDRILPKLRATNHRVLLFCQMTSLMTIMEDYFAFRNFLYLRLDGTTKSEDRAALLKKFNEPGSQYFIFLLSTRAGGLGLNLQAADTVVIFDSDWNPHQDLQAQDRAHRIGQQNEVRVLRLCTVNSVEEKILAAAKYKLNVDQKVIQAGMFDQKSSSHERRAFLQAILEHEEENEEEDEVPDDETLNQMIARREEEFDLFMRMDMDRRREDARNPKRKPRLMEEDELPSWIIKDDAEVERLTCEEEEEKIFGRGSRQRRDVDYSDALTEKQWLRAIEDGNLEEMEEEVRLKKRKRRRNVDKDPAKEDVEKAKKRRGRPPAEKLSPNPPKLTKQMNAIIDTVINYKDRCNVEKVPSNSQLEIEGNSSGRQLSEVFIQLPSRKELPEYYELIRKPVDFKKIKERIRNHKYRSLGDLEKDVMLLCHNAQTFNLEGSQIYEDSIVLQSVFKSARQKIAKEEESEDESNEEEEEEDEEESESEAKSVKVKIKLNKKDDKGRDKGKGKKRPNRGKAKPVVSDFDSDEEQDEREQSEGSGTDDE

SMILES | BRM HiBit Degradation Maximum (%) (HiBit-BRM fusion protein) | Dmax [1] [%] | DC50 (HiBit-BRM fusion protein) [nM] | DC50 [1] [nM]
Cc1ncsc1-c1ccc(CNC(=O)[C@@H]2C[C@@H](O)CN2C(=O)[C@@H](NC(=O)CCCCCCCCCCCCCCCC(=O)N2CC(c3c[nH]c4nnc(-c5ccccc5O)cc34)C2)C(C)(C)C)cc1 [Compound 42, (2S,4R)-4-hydroxy-1-((S)-2-(17-(3-(3-(2-hydroxyphenyl)-7H-pyrrolo[2,3-c]pyridazin-5-yl)azetidin-1-yl)-17-oxoheptadecanamido)-3,3-dimethylbutanoyl)-N-(4-(4-methylthiazol-5-yl)benzyl)pyrrolidine-2-carboxamide] | C (“C” indicates maximum degradation < 50%) | < 50 |  | 
Cc1ncsc1-c1ccc(CNC(=O)[C@@H]2C[C@@H](O)CN2C(=O)[C@@H](NCCC(=O)N2CC(c3cc4cc(-c5ccccc5O)nnc4[nH]3)C2)C(C)(C)C)cc1 (racemic) [Compound 50, (2S,4R)-4-hydroxy-1-((S)-2-((3-(3-(3-(2-hydroxyphenyl)-7H-pyrrolo[2,3-c]pyridazin-6-yl)azetidin-1-yl)-3-oxopropyl)amino)-3,3-dimethylbutanoyl)-N-(4-(4-methylthiazol-5-yl)benzyl)pyrrolidine-2-carboxamide] | C (“C” indicates maximum degradation < 50%) | < 50 |  | 
Cc1ncsc1-c1ccc([C@H](C)NC(=O)[C@@H]2C[C@@H](O)CN2C(=O)[C@@H](c2cc(OCCNC(=O)[C@H]3C[C@@]4(Cc5cc(-c6ccccc6O)nnc5N4)C3)no2)C(C)C)cc1 (racemic) [Compound 70, (1R,3s)-N-(2-((5-((R)-1-((2S,4R)-4-hydroxy-2-(((S)-1-(4-(4-methylthiazol-5-yl)phenyl)ethyl)carbamoyl)pyrrolidin-1-yl)-3-methyl-1-oxobutan-2-yl)isoxazol-3-yl)oxy)ethyl)-3′-(2-hydroxyphenyl)-5′,7′-dihydrospiro[cyclobutane-1,6′-pyrrolo[2,3-c]pyridazine]-3-carboxamide] | B (“B” indicates maximum degradation ≥ 50%) | < 50 | > 100 | 
Cc1ncsc1-c1ccc([C@H](C)NC(=O)[C@@H]2C[C@@H](O)CN2C(=O)[C@@H](c2cc(OCCN3CCC(c4cc5cc(-c6ccccc6O)nnc5[nH]4)CC3)no2)C(C)C)cc1 (racemic) [Compound 51, (2S,4R)-4-hydroxy-1-((R)-2-(3-(2-(4-(3-(2-hydroxyphenyl)-7H-pyrrolo[2,3-c]pyridazin-6-yl)piperidin-1-yl)ethoxy)isoxazol-5-yl)-3-methylbutanoyl)-N-((S)-1-(4-(4-methylthiazol-5-yl)phenyl)ethyl)pyrrolidine-2-carboxamide] | A (“A” indicates maximum degradation ≥ 75%) | > 50 | > 10 | > 100
Cc1ncsc1-c1ccc(CNC(=O)[C@@H]2C[C@@H](O)CN2C(=O)[C@@H](NC(=O)CCCCCCCCCCCCCCC(=O)N2CC(c3cc4cc(-c5ccccc5O)nnc4[nH]3)C2)C(C)(C)C)cc1 [Compound 21, (2S,4R)-4-hydroxy-1-((S)-2-(16-(3-(3-(2-hydroxyphenyl)-7H-pyrrolo[2,3-c]pyridazin-6-yl)azetidin-1-yl)-16-oxohexadecanamido)-3,3-dimethylbutanoyl)-N-(4-(4-methylthiazol-5-yl)benzyl)pyrrolidine-2-carboxamide] | C (“C” indicates maximum degradation < 50%) | < 50 |  | 
Cc1ncsc1-c1ccc(CNC(=O)[C@@H]2C[C@@H](O)CN2C(=O)[C@@H](NC(=O)CCCCCCCCCCCCCCC(=O)N2CC(c3c[nH]c4nnc(-c5ccccc5O)cc34)C2)C(C)(C)C)cc1 [Compound 41, (2S,4R)-4-hydroxy-1-((S)-2-(16-(3-(3-(2-hydroxyphenyl)-7H-pyrrolo[2,3-c]pyridazin-5-yl)azetidin-1-yl)-16-oxohexadecanamido)-3,3-dimethylbutanoyl)-N-(4-(4-methylthiazol-5-yl)benzyl)pyrrolidine-2-carboxamide] | C (“C” indicates maximum degradation < 50%) | < 50 |  | 
Cc1ncsc1-c1ccc([C@H](C)NC(=O)[C@@H]2C[C@@H](O)CN2C(=O)[C@@H](c2cc(OCCN(C)[C@H]3CCc4[nH]c5nnc(-c6ccccc6O)cc5c4C3)no2)C(C)C)cc1 (single isomer, unassigned) [Compound 165] | A (“A” indicates maximum degradation ≥ 75%) | < 50 | > 100 | 
Cc1ncsc1-c1ccc([C@H](C)NC(=O)[C@@H]2C[C@@H](O)CN2C(=O)[C@@H](c2cc(N3CCN(C(=O)C(=O)N4CC(c5c[nH]c6nnc(-c7ccccc7O)cc56)C4)CC3)no2)C(C)C)cc1 (racemic) [Compound 267, (2S,4R)-4-hydroxy-1-((R)-2-(3-(4-(2-(3-(3-(2-hydroxyphenyl)-7H-pyrrolo[2,3-c]pyridazin-5-yl)azetidin-1-yl)-2-oxoacetyl)piperazin-1-yl)isoxazol-5-yl)-3-methylbutanoyl)-N-((S)-1-(4-(4-methylthiazol-5-yl)phenyl)ethyl)pyrrolidine-2-carboxamide] | A (“A” indicates maximum degradation ≥ 75%) | < 50 | > 100 | 
Cc1ncsc1-c1ccc([C@H](C)NC(=O)C2C[C@@H](O)CN2C(=O)[C@@H](c2cc(OCCN3C[C@H]4C[C@H](c5[nH]c6nnc(-c7ccccc7O)cc6c5C)C[C@H]4C3)no2)C(C)C)cc1 (single isomer, unassigned) [Compound 112] | A (“A” indicates maximum degradation ≥ 75%) | > 75 | < 10 | > 10
Cc1ncsc1-c1ccc([C@H](C)NC(=O)[C@@H]2C[C@@H](O)CN2C(=O)[C@@H](c2cc(OCCN3C[C@@H]4[C@H](C3)[C@H]4c3[nH]c4nnc(-c5ccccc5O)cc4c3C)no2)C(C)C)cc1 [Compound 272, (2S,4R)-4-hydroxy-1-((R)-2-(3-(2-((1R,5S,6R)-6-(3-(2-hydroxyphenyl)-5-methyl-7H-pyrrolo[2,3-c]pyridazin-6-yl)-3-azabicyclo[3.1.0]hexan-3-yl)ethoxy)isoxazol-5-yl)-3-methylbutanoyl)-N-((S)-1-(4-(4-methylthiazol-5-yl)phenyl)ethyl)pyrrolidine-2-carboxamide] | A (“A” indicates maximum degradation ≥ 75%) | > 75 | < 10 | > 10
Cc1ncsc1-c1ccc(CNC(=O)[C@@H]2C[C@@H](O)CN2C(=O)[C@@H](NC(=O)CCCCCCCCC(=O)N2CC(c3c[nH]c4nnc(-c5ccccc5O)cc34)C2)C(C)(C)C)cc1 [Compound 43, (2S,4R)-4-hydroxy-1-((S)-2-(10-(3-(3-(2-hydroxyphenyl)-7H-pyrrolo[2,3-c]pyridazin-5-yl)azetidin-1-yl)-10-oxodecanamido)-3,3-dimethylbutanoyl)-N-(4-(4-methylthiazol-5-yl)benzyl)pyrrolidine-2-carboxamide] | C (“C” indicates maximum degradation < 50%) | < 50 |  | 
Cc1ncsc1-c1ccc([C@H](C)NC(=O)[C@@H]2C[C@@H](O)CN2C(=O)[C@@H](c2cc(C3CN(C(=O)c4cc5cc(-c6ccccc6O)nnc5[nH]4)C3)no2)C(C)C)cc1 (single isomer, unassigned) [Compound 178] | C (“C” indicates maximum degradation < 50%) | < 50 |  | 
Cc1ncsc1-c1ccc([C@H](C)NC(=O)[C@@H]2C[C@@H](O)CN2C(=O)[C@@H](c2cc(OCCN3CCC[C@H]3c3cc4cc(-c5ccccc5O)nnc4[nH]3)no2)C(C)C)cc1 (racemic) [Compound 260, (2S,4R)-4-hydroxy-1-((R)-2-(3-(2-((S)-2-(3-(2-hydroxyphenyl)-7H-pyrrolo[2,3-c]pyridazin-6-yl)pyrrolidin-1-yl)ethoxy)isoxazol-5-yl)-3-methylbutanoyl)-N-((S)-1-(4-(4-methylthiazol-5-yl)phenyl)ethyl)pyrrolidine-2-carboxamide] | B (“B” indicates maximum degradation ≥ 50%) | < 50 | > 10 | 
CC(C)[C@@H](C(=O)N1C[C@H](O)C[C@H]1C(=O)N[C@@H](C)c1ccc(-c2ccccc2F)cc1)c1cc(OCCN2CC(c3cc4cc(-c5ccccc5O)nnc4[nH]3)C2)no1 (single isomer, unassigned) [Compound 119] | A (“A” indicates maximum degradation ≥ 75%) | > 50 | > 10 | > 1000
Cc1ncsc1-c1ccc([C@H](C)NC(=O)[C@@H]2C[C@@H](O)CN2C(=O)[C@@H](c2cc(OCCN(C)CC34CC(c5cc6cc(-c7ccccc7O)nnc6[nH]5)(C3)C4)no2)C(C)C)cc1 (racemic) [Compound 246, (2S,4R)-4-hydroxy-1-((R)-2-(3-(2-(((3-(3-(2-hydroxyphenyl)-7H-pyrrolo[2,3-c]pyridazin-6-yl)bicyclo[1.1.1]pentan-1-yl)methyl)(methyl)amino)ethoxy)isoxazol-5-yl)-3-methylbutanoyl)-N-((S)-1-(4-(4-methylthiazol-5-yl)phenyl)ethyl)pyrrolidine-2-carboxamide] | A (“A” indicates maximum degradation ≥ 75%) | > 75 | > 10 | > 100
